Source: US5286648A, “A84575 antibiotics” (Eli Lilly and Company, priority 1991, dated 1994)
Converted amounts (≈) assume the structure as drawn. Like-named read-outs stand apart in the source and are kept apart here.

Legend:
[1] = test system: Staphylococcus epidermidis; assay: In vitro activity vs. Staphylococcus epidermidis strains, agar dilution, Mueller-Hinton agar (Table 7); format: cell-based
Bacteroides corrodens = assay: Susceptibility of anaerobic bacterial isolates, agar dilution (Table 13); format: cell-based; details: Eikenella corrodens, 24 h
Hemophilus influenza = assay: In vitro activity vs. Hemophilus influenza strains, broth dilution, Shadler broth + 5% fildes extract (Table 12); format: cell-based
Source text: ^1 Using brothdilution method and testing the strains with Shadler
broth +5% fildes extract

Eubacterium aerofaciens = assay: Susceptibility of anaerobic bacterial isolates, agar dilution (Table 13); format: cell-based; details: Collinsella aerofaciens, 24 h
S. mutans = assay: In vitro activity vs. miscellaneous Streptococcus strains, agar dilution, Mueller-Hinton agar (Table 9)
[2] = test system: Streptococcus sp. (Group D); assay: In vitro activity vs. Streptococcus sp. (Group D) strains, agar dilution, Mueller-Hinton agar (Table 8); format: cell-based
S. salivarius = assay: In vitro activity vs. miscellaneous Streptococcus strains, agar dilution, Mueller-Hinton agar (Table 9)
S. sanguis = assay: as above
[3] = test system: Fusobacterium necrophorum; assay: Susceptibility of anaerobic bacterial isolates, agar dilution (Table 13); format: cell-based; details: 24 h
Staphylococcus aureus = assay: In vitro activity vs. Staphylococcus aureus strains, agar dilution, Mueller-Hinton agar (Table 6); format: cell-based
Peptococcus prevoti = assay: Susceptibility of anaerobic cocci isolates, agar dilution (Table 16); format: cell-based; details: 24 hr, A84575: 3 different lots
Source text: *MIC Determined by the AgarDilution Method, Endpoints Read After 24Hr.

Propionibacterium acnes = assay: Susceptibility of Propionibacterium acnes isolates, agar dilution (Table 15); format: cell-based; details: Cutibacterium acnes, 24 h
Streptococcus pyogenes = assay: In vivo activity, administered subcutaneously to mice (Table 17); details: sc, subcutaneous, LD challenge 464

Compound: CN[C@H](CC(C)C)C(=O)N[C@H]1C(=O)N[C@@H](CC(N)=O)C(=O)N[C@H]2C(=O)N[C@H]3C(=O)N[C@H](C(=O)N[C@H](C(=O)O)c4cc(O)cc(O)c4-c4cc3ccc4O)[C@H](O)c3ccc(c(Cl)c3)Oc3cc2cc(c3O[C@@H]2O[C@H](CO)[C@@H](O)[C@H](O)[C@H]2O[C@H]2C[C@](C)(N)[C@H](O)[C@H](C)O2)Oc2ccc(cc2Cl)[C@H]1O [Vancomycin]
- MIC ([1]; strain 10-S-81, methicillin-resistant): 1 µg/mL (≈ 0.69 µM)
- MIC ([1]; strain 1202-18): 2 µg/mL (≈ 1.38 µM)
- MIC ([1]; strain 3078): 1 µg/mL (≈ 0.69 µM)
- MIC ([1]; strain 3079): 2 µg/mL (≈ 1.38 µM)
- MIC ([1]; strain 12477, methicillin-resistant): 2 µg/mL (≈ 1.38 µM)
- MIC ([1]; strain 48213): 2 µg/mL (≈ 1.38 µM)
- MIC ([1]; strain 48989): 1 µg/mL (≈ 0.69 µM)
- MIC ([1]; strain 49030): 2 µg/mL (≈ 1.38 µM)
- MIC ([1]; strain 49128, methicillin-resistant): 1 µg/mL (≈ 0.69 µM)
- MIC ([1]; strain 49536): 1 µg/mL (≈ 0.69 µM)
- MIC ([1]; strain 50766): 1 µg/mL (≈ 0.69 µM)
- MIC ([1]; strain S-3): 2 µg/mL (≈ 1.38 µM)
- MIC ([1]; strain ST-214, methicillin-resistant): 0.5 µg/mL (≈ 0.345 µM)
- MIC ([1]; strain ST-215, methicillin-resistant): 2 µg/mL (≈ 1.38 µM)
- MIC ([1]; strain ST-216): 1 µg/mL (≈ 0.69 µM)
- MIC ([1]; strain ST-217, methicillin-resistant): 1 µg/mL (≈ 0.69 µM)
- MIC ([1]; strain ST-220, methicillin-resistant): 1 µg/mL (≈ 0.69 µM)
- MIC ([1]; strain ST-222, methicillin-resistant): 0.5 µg/mL (≈ 0.345 µM)
- MIC (Bacteroides corrodens): 16 µg/mL (≈ 11 µM)
- MIC (Hemophilus influenza; strain Astes): 64 µg/mL
- MIC (Hemophilus influenza; strain Bond): 64 µg/mL
- MIC (Hemophilus influenza; strain Bruno): 128 µg/mL
- MIC (Hemophilus influenza; strain Harper): 64 µg/mL
- MIC (Hemophilus influenza; strain Johnson): 64 µg/mL
- MIC (Hemophilus influenza; strain Lassig): 32 µg/mL
- MIC (Hemophilus influenza; strain Lawrence): 64 µg/mL
- MIC (Hemophilus influenza; strain Newton): 64 µg/mL
- MIC (Eubacterium aerofaciens): 8 µg/mL (≈ 5.52 µM)
- MIC (S. mutans; strain SM-1122): 1 µg/mL (≈ 0.69 µM)
- MIC (S. mutans; strain SM-1134): 2 µg/mL (≈ 1.38 µM)
- MIC ([2]; strain 282): 1 µg/mL (≈ 0.69 µM)
- MIC ([2]; strain 8043): 1 µg/mL (≈ 0.69 µM)
- MIC ([2]; strain 9901): 2 µg/mL (≈ 1.38 µM)
- MIC ([2]; strain 9913): 1 µg/mL (≈ 0.69 µM)
- MIC ([2]; strain 9933 Beta): 4 µg/mL (≈ 2.76 µM)
- MIC ([2]; strain 9960): 4 µg/mL (≈ 2.76 µM)
- MIC ([2]; strain 12253F): 1 µg/mL (≈ 0.69 µM)
- MIC ([2]; strain 22521): 4 µg/mL (≈ 2.76 µM)
- MIC ([2]; strain M10): 4 µg/mL (≈ 2.76 µM)
- MIC ([2]; strain M11): 1 µg/mL (≈ 0.69 µM)
- MIC ([2]; strain M12): 4 µg/mL (≈ 2.76 µM)
- MIC ([2]; strain M13): 2 µg/mL (≈ 1.38 µM)
- MIC ([2]; strain M20): 1 µg/mL (≈ 0.69 µM)
- MIC ([2]; strain M21): 4 µg/mL (≈ 2.76 µM)
- MIC ([2]; strain M28): 4 µg/mL (≈ 2.76 µM)
- MIC ([2]; strain M36): 4 µg/mL (≈ 2.76 µM)
- MIC ([2]; strain M38): 1 µg/mL (≈ 0.69 µM)
- MIC ([2]; strain Shrigley): 2 µg/mL (≈ 1.38 µM)
- MIC ([2]; strain Van Almen): 4 µg/mL (≈ 2.76 µM)
- MIC ([2]; strain Vietnam): 2 µg/mL (≈ 1.38 µM)
- MIC (S. salivarius): 1 µg/mL (≈ 0.69 µM)
- MIC (S. sanguis; strain I-SSI-547): 0.5 µg/mL (≈ 0.345 µM)
- MIC (S. sanguis; strain I-SSI-910): 0.5 µg/mL (≈ 0.345 µM)
- MIC (S. sanguis; strain II-SSII-895): 0.5 µg/mL (≈ 0.345 µM)
- MIC (S. sanguis; strain II-SSII-911): 1 µg/mL (≈ 0.69 µM)
- MIC [3]: 1 µg/mL (≈ 0.69 µM)
- MIC (Staphylococcus aureus; strain 3055): 1 µg/mL (≈ 0.69 µM)
- MIC (Staphylococcus aureus; strain 3109): 1 µg/mL (≈ 0.69 µM)
- MIC (Staphylococcus aureus; strain 3110): 0.5 µg/mL (≈ 0.345 µM)
- MIC (Staphylococcus aureus; strain 3123): 1 µg/mL (≈ 0.69 µM)
- MIC (Staphylococcus aureus; strain 3128): 1 µg/mL (≈ 0.69 µM)
- MIC (Staphylococcus aureus; strain 3131, methicillin-resistant): 0.5 µg/mL (≈ 0.345 µM)
- MIC (Staphylococcus aureus; strain 3136): 1 µg/mL (≈ 0.69 µM)
- MIC (Staphylococcus aureus; strain 3484A, methicillin-resistant): 1 µg/mL (≈ 0.69 µM)
- MIC (Staphylococcus aureus; strain 25923): 2 µg/mL (≈ 1.38 µM)
- MIC (Staphylococcus aureus; strain #43, methicillin-resistant): 0.5 µg/mL (≈ 0.345 µM)
- MIC (Staphylococcus aureus; strain BGB #10, methicillin-resistant): 1 µg/mL (≈ 0.69 µM)
- MIC (Staphylococcus aureus; strain CVT#6, methicillin-resistant): 0.5 µg/mL (≈ 0.345 µM)
- MIC (Staphylococcus aureus; strain DUTT, methicillin-resistant): 0.5 µg/mL (≈ 0.345 µM)
- MIC (Staphylococcus aureus; strain H290): 1 µg/mL (≈ 0.69 µM)
- MIC (Staphylococcus aureus; strain H535): 0.5 µg/mL (≈ 0.345 µM)
- MIC (Staphylococcus aureus; strain ID-VI #1, methicillin-resistant): 0.5 µg/mL (≈ 0.345 µM)
- MIC (Staphylococcus aureus; strain Seattle 973, methicillin-resistant): 0.5 µg/mL (≈ 0.345 µM)
- MIC (Staphylococcus aureus; strain V92): 0.5 µg/mL (≈ 0.345 µM)
- MIC (Peptococcus prevoti; strain 1281, read-out: MIC): 2 µg/mL (≈ 1.38 µM)
- MIC (Peptococcus prevoti; strain 1293): 2 µg/mL (≈ 1.38 µM)
- MIC (Peptococcus prevoti; strain 1407): 2 µg/mL (≈ 1.38 µM)
- MIC (Propionibacterium acnes; strain #44, A84575: 3 different lots): 0.5 µg/mL (≈ 0.345 µM)
- MIC (Propionibacterium acnes; strain #103, A84575: 3 different lots): 0.25 µg/mL (≈ 0.173 µM)
- MIC (Propionibacterium acnes; strain #104, A84575: 3 different lots): 0.5 µg/mL (≈ 0.345 µM)
- MIC (Propionibacterium acnes; strain #105, A84575: 3 different lots): 0.25 µg/mL (≈ 0.173 µM)
- MIC (Propionibacterium acnes; strain #106, A84575: 3 different lots): 0.5 µg/mL (≈ 0.345 µM)
- MIC (Propionibacterium acnes; strain #107, A84575: 3 different lots): 0.25 µg/mL (≈ 0.173 µM)
- MIC (Propionibacterium acnes; strain #5170, A84575: 3 different lots): 0.25 µg/mL (≈ 0.173 µM)
- MIC (Propionibacterium acnes; strain #5176, A84575: 3 different lots): 2 µg/mL (≈ 1.38 µM)
- MIC (Propionibacterium acnes; strain #5187, A84575: 3 different lots): 0.5 µg/mL (≈ 0.345 µM)
- MIC (Propionibacterium acnes; strain #5191, A84575: 3 different lots): 0.5 µg/mL (≈ 0.345 µM)
- MIC (Propionibacterium acnes; strain #5197, A84575: 3 different lots): 0.5 µg/mL (≈ 0.345 µM)
- MIC (Propionibacterium acnes; strain #5226, A84575: 3 different lots): 0.5 µg/mL (≈ 0.345 µM)
- MIC (Propionibacterium acnes; strain #5227, A84575: 3 different lots): 0.25 µg/mL (≈ 0.173 µM)
- MIC (Propionibacterium acnes; strain #5228, A84575: 3 different lots): 0.25 µg/mL (≈ 0.173 µM)
- MIC (Propionibacterium acnes; strain #5229, A84575: 3 different lots): 0.25 µg/mL (≈ 0.173 µM)
- MIC (Propionibacterium acnes; strain #5246, A84575: 3 different lots): 0.25 µg/mL (≈ 0.173 µM)
- MIC (Propionibacterium acnes; strain #5260, A84575: 3 different lots): 0.5 µg/mL (≈ 0.345 µM)
- MIC (Propionibacterium acnes; strain #5292, A84575: 3 different lots): 0.5 µg/mL (≈ 0.345 µM)
- MIC (Propionibacterium acnes; strain #8586A, A84575: 3 different lots): 0.5 µg/mL (≈ 0.345 µM)
- ED50 (Streptococcus pyogenes): 0.72 mg/kg
